Measurements as given in patent US20040106673A1, “Compositions and methods for inhibiting proliferation in human prostate cancer cells” (priority 2002, published 2004).
Values joined by “and” are separate entries in the source; they are usually repeats but may differ in a detail not shown here. Equal values may be shown once.

Tests used:
LNCaP tumors [1] = test: Second in vivo study: TPA, ATRA or both i.p. in NCr mice with LNCaP tumors, 21 or 46 days; conditions: for % of Mice with Tumor Growth / % of Mice with Tumor Regression: i.p.; for percent of initial tumor size: TPA 0.16 nmol/g
Experimental: Tumor cell growth was measured and expressed as percent of initial size (FIG. 3). […] In this table, mice in Group A (13 mice/group) were treated for 21 days, while mice in Group B (6 mice/group) were a subset of the original group and were treated for an additional 25 days.
The effect of the 21 day treatments on body weight was examined in order to determine if there was the same level of toxicity seen in the first animal study.
The results from the Group B animals were analyzed separately.
Male Ncr immunodeficient mice (6 to 7 weeks old) were obtained from Taco Farms (Germantown, N.Y.). The animals were housed in sterile filter-capped microisolator cages and provided with sterilized food and water. Prostate cancer cells (2×10^6 cells/0.1 ml/mouse) suspended in 50% matrigel (Collaborative Research, Bedford, Mass.) in RPMI 1640 medium were injected subcutaneously into the right flank of the mice. After 4 to 6 weeks, mice with well-established tumors (0.65 to 1 cm by 0.65 to 1 cm) were used for the various experiments. In all experiments, animals received the same volume of injections (5 μl/g body weight). Tumor size and body weight were measured daily. At the end of a study, mice were sacrificed by decapitation, tumors were excised, weighed, and placed in phosphate-buffered formalin for 48 hr at room temperature and then placed in ethanol for 48 hr before preparing paraffin sections.

LNCaP tumors [2] = test: Mitotic cells and caspase 3 (active form) immunostaining in LNCaP tumors from treated mice; type: in vivo, male NCr mice; conditions: mice treated for 46 days
Experimental: (§1) Tumor size and body weight were measured daily.
Tumor sections used were stained by the horseradish peroxidase-conjugated-avidin method. Endogenous peroxidase was blocked by incubating the tissue sections in 3% hydrogen peroxide in methanol for 30 minutes at room temperature. Sections were then treated with 0.01 M sodium citrate buffer (pH 6.0) in a microwave oven at high temperature for 10 minutes. The sections were incubated with a protein block (normal goat serum) for 10 minutes, followed by avidin D for 15 minutes and biotin blocking solution for 15 minutes at room temperature. The sections were incubated with caspase 3 primary antibody (1:2000 dilution) for 30 minutes at room temperature followed by incubation with a biotinylated anti-rabbit secondary antibody for 30 minutes and incubation with conjugated-avidin solution for 30 minutes. Color development was achieved by incubation with 0.02% 3,3′-diaminobenzidine tetrahydrochloride containing 0.02% hydrogen peroxide for 10 minutes at room temperature. The slides were then counterstained with hematoxylin, dehydrated and coverslips were added for permanent mounting. A positive reaction was shown as a light brown to dark brown precipitate in the cytoplasm and/or perinuclei of the cells.

LNCaP cells [3] = test: Flow cytometry (propidium iodide): cell cycle distribution and apoptosis in cultured LNCaP cells; type: cell-based, human; conditions: for apoptotic cells (percent of pre-G0/G1 cells): single drug, TPA 0.16 or 0.32 nM
Experimental: LNCaP cells were obtained from the American Type Culture Collection (Rockville, Md., USA). TPA was obtained from Alexis Co. (San Diego, Calif.). […] LNCaP cells were maintained in RPMI-1640 culture medium containing 10% fetal bovine serum that was supplemented with penicillin (100 units/ml), streptomycin (100 μg/ml) and L-glutamine (300 μg/ml) as described (Zheng, X. et al. 2000. Oncol. Res. 12:419=427). Cultured cells were grown at 37° C. in a humidified atmosphere of 5% CO2 and were passed twice a week. In all experiments, LNCaP cells were initially seeded at a density of 1×10^5 cells/ml in a final volume of 2 or 5 ml in 35 or 60 mm tissue culture dishes, respectively.
To perform the analysis, 1×10^6 cells were washed with phosphate-buffered saline (PBS) and resuspended in 500 μl of stain solution (20 mg/ml polyethylene glycol 8000, 50 μg/ml propidium iodide, 0.1% Triton-X-100, and 0.4 M sodium chloride). The mixture was incubated at 4° C. overnight in the dark before being analyzed on a Coulter Epics-Profile II flow cytometer. Propidium iodide is a fluorescent dye that intercalates into the DNA double helix. Whether cells are in the G1 phase where they have two copies of their genome or in the G2/M phase where they have 4 copies of their genome, or in the S phase where their DNA is between the two states, can be determined by the amount of propidium iodide that intercalates into the DNA. Pre G0/G1 cells were considered apoptotic cells. The proportion of cells in each phase of the cell cycle was calculated using the cytologic software provided.

LNCaP cells [4] = test: Number of viable LNCaP cells (trypan blue exclusion); type: cell-based, human; conditions: for effect on LNCaP cell growth (FIG. 2): TPA alone 0.32 nM, ATRA alone 0.5 to 10 μM, or 0.32 nM TPA with increasing ATRA
Experimental: LNCaP cells were seeded in culture dishes and incubated for 24 hours to allow the cells to attach to the culture dishes. The cells were then treated with ethanol (2 μl/ml) or TPA in ethanol (0.2 to 10 ng/ml) for 96 hours.
The number of viable and dead cells was determined by trypan blue exclusion. […] The concentration of TPA that caused a 50% inhibition of LNCaP cell growth was 3 nM (IC50). The IC50 for TPA varied between 1 and 3 nM in different experiments.
LNCaP cells were obtained from the American Type Culture Collection (Rockville, Md., USA). TPA was obtained from Alexis Co. (San Diego, Calif.). ATRA was obtained from Sigma Chemical Co. (St. Louis, Mo.). LNCaP cells were maintained in RPMI-1640 culture medium containing 10% fetal bovine serum that was supplemented with penicillin (100 units/ml), streptomycin (100 μg/ml) and L-glutamine (300 μg/ml) as described (Zheng, X. et al. 2000. Oncol. Res. 12:419=427). Cultured cells were grown at 37° C. in a humidified atmosphere of 5% CO2 and were passed twice a week. In all experiments, LNCaP cells were initially seeded at a density of 1×10^5 cells/ml in a final volume of 2 or 5 ml in 35 or 60 mm tissue culture dishes, respectively.
To quantify the number of viable cells after each treatment, cells were counted using a hemacytometer under a light microscope. Cell viability was determined by the trypan blue exclusion assay, which was done by mixing 80 μl of cell suspension and 20 μl of 0.4% trypan blue solution for 2 minutes.

[5] = doses of TPA in the range of 0.25 to 1 mg; cited from earlier work
[6] = Blood levels of TPA after i.p. injection in NCr mice (HL-60 differentiation bioassay); type: in vivo, male NCr mice
Experimental: Immunodeficient male NCr mice were used as they are a well-established mouse model for examination of human tumor cell growth. […] TPA was administered in a vehicle that consisted of propylene glycol, polysorbate 80, benzyl alcohol, ethanol, and water (40:0.5:1:10:48.5). Peak blood levels of TPA were in the range of 3 ng/ml (4.8 nM) after a 200 ng/g injection and 1 ng/ml (1.7 nM) after a 100 ng/g injection.
The concentration of TPA in blood after an i.p. injection of TPA was measured by a bioassay that quantifies ethyl acetate-extractable differentiating activity in blood (Cui, X. X. et al. 2002. Oncol. Res. 13:169-174). Differentiating activity was measured in HL-60 cells. […] Although blood levels of bioactive material are expressed as ng of TPA/ml blood, the assay could include biologically active metabolites.

LNCaP tumors [7] = test: First in vivo study: TPA i.p. in NCr mice with LNCaP tumors, 13 days; set-up: species or system male NCr mice
Experimental: With the feasibility of the use of TPA by i.p. injection now established, male NCr mice were injected subcutaneously with LNCaP cells in matragel. […] On day 3, the dose of TPA was increased (0.32 nmol/g; 5 μl vehicle/g body weight) and this dose level was administered i.p. for 11 days. The length and width of each tumor was measured at the start of the study and during treatment with TPA. Tumor size was expressed as cm^2 (length×width). There was a statistically significant inhibition of tumor cell growth in the TPA treated animals. The average tumor size in the vehicle-treated control group increased to about 200% of the initial tumor size while the average tumor size after 13 days of treatment with TPA was about 95% of the initial tumor size.
as §1

[8] = entire 46 day treatment interval (Group B), ATRA 0.5 nmol/g
[9] = TPA 0.32 nM, ATRA 1 μM, 96 hours
[10] = Treatment for 48 Hours, TPA 1 ng/ml, Taxol 5 ng/ml
[11] = Treatment for 96 Hours, TPA 1 ng/ml, Taxol 5 ng/ml

CC1=C(/C=C/C(C)=C/C=C/C(C)=C/C(=O)O)C(C)(C)CCC1 [ATRA, all-trans-retinoic acid]
% of Mice with Tumor Growth (LNCaP tumors [1]; Group A, 21 days): 69% | % of Mice with Tumor Regression (LNCaP tumors [1]; Group A, 21 days): 31% | % of Mice with Tumor Growth (LNCaP tumors [1]; Group B, 46 days): 83% | % of Mice with Tumor Regression (LNCaP tumors [1]; Group B, 46 days): 17% | rate of tumor growth at later time intervals (FIG. 5) (LNCaP tumors [1]; Group B, 46 days, ATRA 0.5 nmol/g): about the same rate as tumors in the vehicle control group | percent of initial tumor size (LNCaP tumors [1]; [8]): 159.2±27.0% | % Caspase 3 Positive Cells (LNCaP tumors [2]): 0.35 ± 0.03% | % Mitotic Cells (LNCaP tumors [2]): 0.54 ± 0.04% | % Apoptotic Cells (LNCaP cells [3]; [9]): 3.5% | % Cells in G0/G1 (LNCaP cells [3]; [9]): 73.3% | % Cells in G2/M (LNCaP cells [3]; [9]): 8.2% | % Cells in S (LNCaP cells [3]; [9]): 14.8% | apoptotic cells (percent of pre-G0/G1 cells) (LNCaP cells [3]; 96 hours, ATRA 1 μM): same low level of apoptotic cells | # Visible Cells (1 × 10^5) (LNCaP cells [4]; [9]): 11.1 1 × 10^5 | effect on LNCaP cell growth (FIG. 2) (LNCaP cells [4]): little effect on LNCaP cell growth

CCCCCCCCCCCCCC(=O)O[C@@H]1[C@@H](C)[C@@]2(O)[C@@H](C=C(CO)C[C@]3(O)C(=O)C(C)=C[C@@H]23)[C@@H]2C(C)(C)[C@]12OC(C)=O [TPA, 12-O-tetradecanoylphorbol-13-acetate]
percent of initial tumor size (LNCaP tumors [1]; 21 days, once a day i.p., ATRA 0.5 nmol/g): 96.4±3.1% | % of Mice with Tumor Growth (LNCaP tumors [1]; Group A, 21 days): 38% | % of Mice with Tumor Regression (LNCaP tumors [1]; Group A, 21 days): 62% | % of Mice with Tumor Growth (LNCaP tumors [1]; Group B, 46 days): 33% | % of Mice with Tumor Regression (LNCaP tumors [1]; Group B, 46 days): 67% | percent of initial tumor size (LNCaP tumors [1]; [8]): 106.1±21.0% | effect on body weight (LNCaP tumors [1]; treated for 46 days): significant decreases in body weight | % Caspase 3 Positive Cells (LNCaP tumors [2]): 0.45 ± 0.03 % | % Mitotic Cells (LNCaP tumors [2]): 0.50 ± 0.05% | Ratio of Mitotic Cells/Caspase 3 Cells (LNCaP tumors [2]): 1.13 ± 0.11 | % Apoptotic Cells (LNCaP cells [3]; [9]): 5.4% | % Cells in G0/G1 (LNCaP cells [3]; [9]): 69.7% | % Cells in G2/M (LNCaP cells [3]; [9]): 8.7% | % Cells in S (LNCaP cells [3]; [9]): 15.9% | % Apoptotic Cells (LNCaP cells [3]; [10]): 10.1% | % Cells in G0/G1 (LNCaP cells [3]; [10]): 77.8% | % Cells in G2/M (LNCaP cells [3]; [10]): 5.5% | % Cells in S (LNCaP cells [3]; [10]): 13.0% | % Apoptotic Cells (LNCaP cells [3]; [11]): 11.2% | % Cells in G0/G1 (LNCaP cells [3]; [11]): 66.7% | % Cells in G2/M (LNCaP cells [3]; [11]): 9.5% | % Cells in S (LNCaP cells [3]; [11]): 12.3% | apoptotic cells (percent of pre-G0/G1 cells) (LNCaP cells [3]; 96 hours, ATRA 1 μM): same low level of apoptotic cells | toxicity in humans [5]: only vein irritation and transient fever, and an occasional incidence of transient dyspnea | peak blood level of TPA ([6]; after a 100 ng/g i.p. injection): ~1 ng/ml and ~1.7 nM | peak blood level of TPA ([6]; after a 200 ng/g i.p. injection): about 3 ng/ml and ~4.8 nM | time of peak blood levels ([6]; i.p. 100 or 200 ng TPA per gram of body weight): 30 to 60 min | TPA in blood at 8, 12 or 24 hours ([6]; i.p. injection of 100 ng/g TPA): No TPA was detectable | TPA in blood at 8 and 24 hours ([6]; i.p. injection of 200 ng/g TPA): Measurable blood levels of TPA | half-life of TPA ([6]; i.p., NCr mice): 3 to 6 h | apoptotic cell morphology (LNCaP cells [4]; 3.2 nM TPA): morphologically distinct apoptotic cells | # Visible Cells (1 × 10^5) (LNCaP cells [4]; [9]): 6.9 1 × 10^5 | effect on LNCaP cell growth (FIG. 2) (LNCaP cells [4]): slight inhibitory effect on cell growth | # Visible Cells (1 × 10^5) (LNCaP cells [4]; [10]): 3.7 1 × 10^5 | # Visible Cells (1 × 10^5) (LNCaP cells [4]; [11]): 3.2 1 × 10^5 | toxicity (LNCaP tumors [7]; 13 days, TPA 0.16 then 0.32 nmol/g i.p. once a day): excessive toxicity (decreased body weight and one death on day 14 of the study) | average tumor size, % of the initial tumor size (LNCaP tumors [7]; after 13 days, TPA 0.16 nmol/g for 2 days then 0.32 nmol/g for 11 days, i.p.): about 95%

CC(=O)O[C@H]1C(=O)[C@@]2(C)[C@H]([C@H](OC(=O)c3ccccc3)[C@]3(O)C[C@H](OC(=O)[C@H](O)[C@@H](NC(=O)c4ccccc4)c4ccccc4)C(C)=C1C3(C)C)[C@]1(OC(C)=O)CO[C@@H]1C[C@@H]2O [Taxol, paclitaxol]
% Apoptotic Cells (LNCaP cells [3]; [10]): 12.9% | % Cells in G0/G1 (LNCaP cells [3]; [10]): 73.0% | % Cells in G2/M (LNCaP cells [3]; [10]): 6.4% | % Cells in S (LNCaP cells [3]; [10]): 12.8% | % Apoptotic Cells (LNCaP cells [3]; [11]): 28.4% | % Cells in G0/G1 (LNCaP cells [3]; [11]): 49.7% | % Cells in G2/M (LNCaP cells [3]; [11]): 8.7% | % Cells in S (LNCaP cells [3]; [11]): 12.4% | # Visible Cells (1 × 10^5) (LNCaP cells [4]; [10]): 4.6 1 × 10^5 | # Visible Cells (1 × 10^5) (LNCaP cells [4]; [11]): 2.5 1 × 10^5
